# Ends that are not written are not given here.
# What was measured:
# C57BL/6NCrj mice [1] = assay: light-dark exploration test, SB-334867 (Example 3); assay type: in vivo
# Experimental: Specifically, two types of solutions, 0.50 nmol/μl and 1.50 nmol/μl, were prepared. The artificial cerebrospinal fluid (aCSF) was used alone as a negative control.
# The position of the inserted cannula was also confirmed in the same manner.
# The following three subject groups were tested.
# The test apparatus consisted of a dark compartment (depth 10 cm×width 15 cm length 20 cm) and a light compartment (depth 20 cm×width 15 cm×length 20 cm). Specifically, the dark compartment was made of a black plastic material with a lid on top whereas the light compartment was made of a white plastic material with an open top. Both of the light and dark compartments were connected via a black plastic tunnel (depth 7 cm×width 10 cm×length 4.5 cm) that allows access to both compartments.
# At the end of the test, the total time spent in the light compartment was calculated for each test animal, and the results were expressed as “average time+SEM” for each test subject (see FIG. 4). […]
# C57BL/6NCrj mice [2] = assay: light-dark exploration test, orexin-A (Example 1); assay type: in vivo; settings: for time spent in the light compartment, difference from the aCSF administration group: intracerebroventricular, mice
# Experimental: C57BL/6NCrj mice (male, 25 to 30 g, Charles River, Japan) were used for the light-dark exploration test. Ten mice were bred per cage.
# (§1) Orexin-A (Peptide Institute Inc., Osaka, Japan) was dissolved in an artificial cerebrospinal fluid (aCSF: glucose 10 mM, KCl 2 mM, NaCl 115 mM, CaCl2 2.5 mM, MgSO4 1.2 mM, NaHCO3 25 mM, KH2PO4 2.2 mM; pH 7. 4) to prepare solutions at various concentrations (0.1 nmol/μl, 0.3 nmol/μl, 1.0 nmol/μl, 3.0 nmol/μl). The artificial cerebrospinal fluid was used alone as a negative control.
# (§2) A stainless-steel injection needle was used that can be inserted into the lateral ventricle to a point 0.5 mm deeper than the tip of the guide cannula for intracerebroventricularly administering an orexin-A solution. The amounts of orexin-A solution were 2 μl and 5 μl for mice and rats, respectively. A microsyringe (705N 50 μl, Hamilton, Nevada, USA) was connected to a reflux pump (CMA100, BAS Inc., Tokyo, Japan) for injection at a precisely constant rate (1 μl/min for mice and 2.5 μl/min for rats).
# The following four subject groups were tested.
# The test apparatus consisted of two compartments, namely a dark compartment (depth 10 cm×width 15 cm×length 20 cm) and a light compartment (depth 20 cm×width 15 cm×length 20 cm). Specifically, the dark compartment was made using a black plastic material with a lid on top whereas the light compartment was made using a white plastic material with an open top. Both of the light and dark compartments were connected via a black plastic tunnel (depth 7 cm×width 10 cm×length 4.5 cm) that allows access to both compartments.
# The illumination of the test room was set to 150 lux. The test animals were habituated to an illumination of 10 lux in another room for more than 3 hours before starting the test (except upon administration). This test was conducted between 13:00 to 16:00. […]
# At the end of the test, the total time spent in the light compartment was calculated for each test animal, and the results were expressed as “average time+SEM” (see FIG. 1). […]
# mouse = settings: intracerebroventricular administration to a mouse; cited from earlier work
# C57BL/6NCrj mice [3] = assay: elevated plus maze test, orexin-A (Example 2); assay type: in vivo; settings: 1.0 nmol orexin-A, intracerebroventricular, vs aCSF administration group, p<0.05
# Experimental: C57BL/6NCrj mice (male, 25 to 30 g, Charles River, Japan) were used. Ten mice were bred per cage.
# Orexin-A (Peptide Institute Inc., Osaka, Japan) was dissolved in an artificial cerebrospinal fluid (aCSF: glucose 10 mM, KCl 2 mM, NaCl 115 mM, CaCl2 2.5 mM, MgSO4 1.2 mM, NaHCO3 25 mM, KH2PO4 2.2 mM; pH 7.4) to prepare a solution at a predetermined concentration (1.0 nmol/μl). The artificial cerebrospinal fluid was used alone as a negative control.
# A stainless-steel injection needle was used that can be inserted into the lateral ventricle at a point 0.5 mm deeper than the tip of the guide cannula for intracerebroventricular administration of the orexin-A solution. The amount of the orexin-A solution was 2 μl. A microsyringe (705N 50 μl, Hamilton, Nevada, USA) was connected to a reflux pump (CMA100, BAS Inc., Tokyo, Japan) for injection at a precisely constant rate (1 μl/min).
# The following two subject groups were tested.
# The elevated plus maze test was basically carried out according to the test procedure described in S. Pellow et al. (J. Neurosci. Methods, vol. 14 (1985), p-149-167). […]
# At the end of the test, the total time spent in the open arms was calculated for each test animal, and the results were expressed as “average time+SEM” for each test subject (see FIG. 3). […]
# WISTAR rats = assay: elevated plus maze test, orexin-A (Example 1); assay type: in vivo; settings: intracerebroventricular administration to rats, 0.1 to 3.0 nmol, 15 minutes before test; 5 min test
# Experimental: WISTAR rats (male, 300 to 400 g, Charles River, Japan) were used for the elevated plus maze test. Two […] were bred per cage.
# as §1, §2
# The following five subject groups were tested. […]
# At the end of the test, the total time spent in the open arms was calculated for each test animal, and the results were expressed as “average time+SEM” for each test subject (see FIG. 2). […]
# orexin receptor-2 (OX2R) = biological target: T1, orexin receptor-2 (OX2R) (Homo sapiens, UniProt O43614); settings: orexin-A compared with orexin-B; cited from earlier work
# T1 sequence (O43614 1-444): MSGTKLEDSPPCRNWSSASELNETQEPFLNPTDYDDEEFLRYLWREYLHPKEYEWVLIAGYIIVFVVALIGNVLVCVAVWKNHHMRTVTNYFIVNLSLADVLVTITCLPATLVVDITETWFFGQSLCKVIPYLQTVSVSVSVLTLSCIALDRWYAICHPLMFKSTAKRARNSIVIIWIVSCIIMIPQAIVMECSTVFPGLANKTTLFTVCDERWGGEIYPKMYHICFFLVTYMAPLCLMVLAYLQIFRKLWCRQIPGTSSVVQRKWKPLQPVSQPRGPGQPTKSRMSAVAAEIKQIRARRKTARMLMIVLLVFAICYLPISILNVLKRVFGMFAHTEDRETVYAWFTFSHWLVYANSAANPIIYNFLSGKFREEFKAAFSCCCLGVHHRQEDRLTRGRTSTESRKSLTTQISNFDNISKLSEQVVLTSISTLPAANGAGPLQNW
compound,measurement,setting,value
"Cc1nc2ccc(NC(=O)Nc3ccnc4cccnc34)cc2o1 [SB-334867, 1-(2-methylbenzoxazole 6-yl)-3-[1,5]naphthyridine-4-yl urea]",time spent in the light compartment,"C57BL/6NCrj mice [1]; intracerebroventricular administration to mice, 1 nmol and 3 nmol, 15 minutes before test, 5 min test",lengthened time spent in the light compartment dosage-dependently
same,assessment result: action on anxiety,"C57BL/6NCrj mice [1]; light-dark exploration test, mice, intracerebroventricular",anxiogenic action
"orexin-A: neuropeptide, endogenous orexin receptor ligand; 33 amino acids with two disulfide bonds; from Peptide Institute Inc. (QPLPDCCRQKTCSCRLYELLHGAGNHAAGILTL; disulfide (positions not given here); ends not checked; also: two disulfide bonds, pairing not given here; UniProt O43612 34-66, looked up)","time spent in the light compartment, difference from the aCSF administration group",C57BL/6NCrj mice [2]; 0.1 nmol orexin-A administration group,significant difference
same,"time spent in the light compartment, difference from the aCSF administration group",C57BL/6NCrj mice [2]; 1.0 nmol orexin-A administration group,significant difference
same,time spent in the light compartment,"C57BL/6NCrj mice [2]; intracerebroventricular administration to mice 15 minutes before test, 5 min test, vs aCSF",significantly shortened
same,"stress-like behaviors such as face washing, grooming, searching and burrowing",mouse,increases
same,"time spent in the open arms (elevated plus maze test, FIG. 3)",C57BL/6NCrj mice [3],significantly shortened
same,time spent in the open arms,WISTAR rats,shortened volume-dependently
"orexin-B: neuropeptide, endogenous orexin receptor ligand comprising 28 amino acids",binding affinity of OX2R,orexin receptor-2 (OX2R),generally the same level
